Experimental data published in patent US12507703B2, “Methods, devices and compositions for preserving human milk” (The Trustees of Princeton University, priority 2023, dated 2025).
Values joined by “and” are separate entries in the source; they are usually repeats but may differ in a detail not shown here. Equal entries are not always repeated. Where two headings read alike, the source gives them in different places.

What was measured:
glycerol = experiment: Glycerol-Glo assay of glycerol (byproduct of fat breakdown) in stored human milk; assay type: biochemical
Protocol: Eight human milk samples were tested to determine if glycerol, a byproduct of fat breakdown, accumulated after storage. Human milk samples were collected from the same donor anywhere between 1 month and 7 months after birth, frozen, and then thawed for testing. The samples were frozen on the same day as collection. […] The samples were thawed, and the presence of glycerol was detected by a glycerol-dependent, light-producing reaction presented as a measure of bioluminescence using the Glycerol-Glo™ Assay (Promega; catalog #: J3150) according to the manufacturer's instructions. A buffer with either 0 μM glycerol or 100 μM glycerol, alongside organic whole milk (cow) was used as a control. Glycerol content (bioluminescence) was measured using a BioTek Synergy Neo2 Hybrid Multimode Reader (Agilent; catalog #: BTNE02).

lipase = experiment: Lipase/lipolysis assay (EnzChek Lipase Substrate, quenched BODIPY-fatty acid conjugate) on stored human milk; conditions: for Lipolysis: 5 ounces unpasteurized human milk, frozen −20° C. 1 week
[1] = Total Antioxidant Capacity Assay Kit on stored human milk
Protocol: The compounds in Table 7 were added to fresh human milk and the samples were stored for 1 week at −20° C. […] Additionally, select compounds were tested for total Antioxidant capacity using the Total Antioxidant Capacity: Total Antioxidant Capacity Assay Kit (Abcam; catalog #: ab65329) in accordance with the manufacturer's instructions and presented as a relative ratio compared to fresh human milk. […] Lipase was considered inhibited with a RFU <400, glycerol was considered inhibited with an RLU <150,000, and total antioxidant capacity considered maintained with a ratio >0.75. Results presented in Table 7 represent a dose of 500 μg/mL for vitamin C, E and the carbonate/bicarbonates. All other compounds are at 20 mg/mL. Additionally, all compounds were tested for lipase and antioxidant capacity at multiple dilutions.

[2] = Table 7, 500 μg/mL, relative ratio compared to fresh human milk, maintained if >0.75

Row | Compound | Lipase (RFU) (lipase) | further results
1 | O.O=C[C@H](O)[C@@H](O)[C@@H](O)[C@H](O)C(=O)O [D-(+)-Galacturonic acid monohydrate] | 324.895 RFU | Glycerol (RLU) (glycerol): 71322 RLU
2 | O=C(O)[C@H]1O[C@H](O[C@@H]2[C@H](O)[C@@H](O)[C@@H](O)O[C@@H]2C(=O)O)[C@H](O)[C@@H](O)[C@H]1O [Digalacturonic acid] | 264.075 RFU | Glycerol (RLU) (glycerol): 61741 RLU
3 | O=C(O)[C@H]1O[C@H](O[C@@H]2[C@H](O)[C@@H](O)[C@@H](O[C@@H]3[C@H](O)[C@@H](O)C(O)O[C@@H]3C(=O)O)O[C@@H]2C(=O)O)[C@H](O)[C@@H](O)[C@H]1O (stereo partly drawn) [Trigalacturonic acid] | 352.972 RFU | Glycerol (RLU) (glycerol): 61363 RLU
4 | O=C1O[C@H]([C@@H](O)CO)C(O)=C1O [Vitamin C, ascorbic acid] |  | Total Antioxidant Capacity [1, 2]: 2
5 | Guar gum |  | Glycerol (RLU) (glycerol): 744165 RLU; Total Antioxidant Capacity [1]: 0.59
6 | Gum arabic | 744.000 RFU | Glycerol (RLU) (glycerol): 329275 RLU; Total Antioxidant Capacity [1]: 0.64
7 | Lambda carageenan | 432.920 RFU | Glycerol (RLU) (glycerol): 140894 RLU
8 | Locust bean gum | 1054.203 RFU | Glycerol (RLU) (glycerol): 435487 RLU; Total Antioxidant Capacity [1]: 0.55
9 | Maltotriose | 917.8057 RFU and 1104.158 RFU | 
10 | Mannan | 1091.353 RFU | 
11 | Medicarpin | 622.3141 RFU | 
12 | Notoginsenoside Fe | 902.3283 RFU | 
13 | O-Nornuciferine | 773.2053 RFU | 
14 | Pectin |  | Total Antioxidant Capacity ([1]; Subject 1, 5 ounces unpasteurized human milk, frozen −20° C. 1 week, measure of absorbance): 0.204; Total Antioxidant Capacity ([1]; Subject 2, 5 ounces unpasteurized human milk, frozen −20° C. 1 week, measure of absorbance): 0.264; Total Antioxidant Capacity ([1]; Subject 3, 5 ounces unpasteurized human milk, frozen −20° C. 1 week, measure of absorbance): 0.364; Lipolysis (lipase; Subject 1): 209; Lipolysis (lipase; Subject 2): 525; Lipolysis (lipase; Subject 3): 280
15 | Perfected guar gum | 1061.697 RFU | Glycerol (RLU) (glycerol): 838585 RLU; Total Antioxidant Capacity [1]: 0.72
16 | Phytol | 1207.906 RFU and 715.6019 RFU | 
17 | Pinoresinol | 1253.681 RFU | 
18 | Poly-D-galacturonic acid methyl ester (apple) | 611.342 RFU | Glycerol (RLU) (glycerol): 643757 RLU
19 | Poly-D-galacturonic acid methyl ester (citrus) | 320.660 RFU | Glycerol (RLU) (glycerol): 122743 RLU
20 | Polygalacturonic acid | 398.125 RFU | Glycerol (RLU) (glycerol): 120477 RLU
21 | Prosapogenin A | 965.3667 RFU | 
22 | Pseudoginsenoside F11 | 810.4484 RFU | 
23 | Pyropheophorbide-a | 1205.079 RFU | 

Row | Compound | Lipase (RFU) (lipase) | further results
24 | Rebaudioside A | 1278.993 RFU | 
25 | Rhamnose | 816.2993 RFU and 1253.305 RFU | 
26 | Riboflavin (phosphate sodium) [listing 1 of 2 here] | 760.1592 RFU | 
27 | Riboflavin (phosphate sodium) [listing 2 of 2 here] | 1091.899 RFU | 
28 | Schaftoside | 900.214 RFU | 
29 | Solanesol | 985.7418 RFU | 
30 | Sorafenib (Tosylate) | 986.7553 RFU | 
31 | Tara gum | 841.631 RFU | 
32 | Theaflavin 3,3′-digallate | 933.3624 RFU | 
33 | Theaflavin-3′-gallate | 780.4384 RFU | 
34 | Thiamine nitrate | 1094.609 RFU and 1092.499 RFU | 
35 | Triolein | 728.6705 RFU | 
36 | Triton X-100 [reference compound] | 370.282 RFU | Glycerol (RLU) (glycerol): 145670 RLU
37 | Tween 80 |  | Effect on glycerol production (in words) (glycerol): reduced lipase and glycerol production; Glycerol (RLU) (glycerol): 113807 RLU; Effect on lipase / lipolysis (in words) (lipase): reduced lipase and glycerol production; Hit in lipase inhibition screen (in words) (lipase): significantly inhibited lipase activity
38 | Ursolic acid acetate | 811.3971 RFU | 
39 | Xanthan gum | 873.106 RFU | 
40 | Xylan | 1273.332 RFU | 
41 | tocopherol [Vitamin E] |  | Total Antioxidant Capacity [1, 2]: 2
42 | trans-Zeatin | 1016.786 RFU | 
43 | β Glucan - 1,3/1,6 | 942.984 RFU | 
44 | β-Alanine | 882.8696 RFU and 1205.931 RFU | 
45 | β-D-Glucan from barley | 995.347 RFU | 
46 | γ-Oryzanol | 1128.852 RFU | 
